Two compounds from patent US20240034731A1, “AZA-QUINAZOLINE COMPOUNDS AND METHODS OF USE” (Iambic Therapeutics, Inc., priority 2022, published 2024) can be followed below.

The subject of one test is MCF-7 cells. The test can be described thus: Cell Growth Inhibition, MCF-7 (CellTiterGlo, 6 days). The class given is cell-based. Conditions: Homo sapiens, MCF7, 144 h, MCF-7, 6-day treatment. In outline: (§1)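 MCF-7 (ER+ breast adenocarcinoma) or CCNE1-amplified OVCAR-3 cells, 500/well in RPMI with 10% FBS, treated with half-log dilutions typically 10-10,000 nM for 6 days at 37 °C. CellTiterGlo 2.0 luminescence gave % growth inhibition versus control; IC50 by four-parameter variable-slope fit.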
Background: In ATP-based viability assays light output follows the ATP content of the culture.

For another test, the target named is CDK4/Cyclin D1 (Homo sapiens (Human), UniProt P11802). As to the kind of experiment: CDK4/Cyclin D1 Mobility Shift Assay (MSA). The class given is biochemical. Conditions: 0.2 mM ATP, read-out: CDK4/ CyclinD1 MSA IC50. The text has this: CDK4/Cyclin D1 Mobility Shift Assay (MSA)
The purpose CDK4/Cyclin D1 assay is to evaluate the inhibition (% inhibition and IC50 values) in the presence of small molecule inhibitors by using a fluorescence based microfluidic mobility shift assay. CDK4/Cyclin D1 catalyzes the production of ADP from ATP that accompanies the phosphoryl transfer to the substrate peptide 5-FAM-Dyrktide (5-FAM-[…]) (Perkin Elmer Peptide 34). The mobility shift assay (MSA) electrophoretically separates the fluorescently labelled peptides (substrate and phosphorylated product) following the kinase reaction. Both substrate and product are measured, and the ratio of these values is used to generate % conversion of substrate to product by the LabChip EZ Reader. Typical reaction solutions contained 2% DMSO (+/− inhibitor), 10 mM MgCl2, 1 mM EGTA, 0.05% BSA, 2 mM DTT, 0.2 mM ATP, 0.01% Brig-35, 1.5 uM 5-FAM-Dyrktide, 2.5 nM CDK4/Cyclin D1 in 50 mM HEPES buffer at pH 7.5. The reaction was initiated with the addition of substrate solution, following a 30-minute pre-incubation of enzyme and inhibitor at 22° C. in the reaction mix. The reaction was stopped after 180 minutes by the addition of 75 uL of 500 mM EDTA and measured on a Perkin Elmer EZ reader instrument. IC50 determinations were made from a plot of the fractional velocity as a function of inhibitor concentration fit to the 4 parameters IC50 equation.

Another test addresses CDK1/Cyclin B1 (Homo sapiens (Human), UniProt P06493). The test can be described thus: CDK1/Cyclin B1 ADP-Glo Kinase Assay. The class given is biochemical. As to conditions: ADP-Glo, 80 uM ATP; read-out: CDK1 Cyclin B1 IC50. In outline: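 Enzyme and inhibitor pre-incubated 30 min at room temperature before ATP/substrate addition; reaction run 90 min at room temperature. ADP formed measured by ADP-Glo luminescence; IC50 from a 4-parameter fit of fractional velocity versus inhibitor concentration.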
Background: ADP-Glo first removes unused ATP, then detects ADP through luciferase.

Another test deals with CDK6/Cyclin D3 (Homo sapiens (Human), UniProt Q00534). As to the kind of experiment: CDK6/Cyclin D3 ADP-Glo Kinase Assay. The class given is biochemical. Conditions: 100 uM ATP, read-out: CDK6/ CyclinD3 IC50. The gist of the method:
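Enzyme and inhibitor were pre-incubated for 30 min at room temperature before ATP/substrate was added. The kinase reaction ran 90 min at room temperature, and ADP formed was detected by ADP-Glo luminescence. IC50 was fitted with a 4-parameter equation to fractional velocity versus inhibitor concentration.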

The next test relates to OVCAR-3 cells. The test can be described thus: Cell Growth Inhibition, OVCAR-3 (CellTiterGlo, 6 days). The class given is cell-based. As to conditions: Homo sapiens, 144 h, OVCAR-3, 6-day treatment. In outline:
as §1

The next test has as its target CDK2/Cyclin E1 (Homo sapiens (Human), UniProt P24941). The test can be described thus: CDK2/Cyclin E1 Full length ADP-Glo Kinase Assay. The class given is biochemical. As to conditions: 20 uM ATP, read-out: CDK2/ CyclinE1 IC50. In outline: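 Full-length human CDK2/cyclin E1 was preincubated 30 min at room temperature with inhibitor, then reacted 90 min with ATP-containing substrate solution. ADP formed was measured by ADP-Glo luminescence; IC50 from 4-parameter fit of fractional velocity versus inhibitor concentration.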

CDK1/Cyclin B1, sequence (P06493 whole entry): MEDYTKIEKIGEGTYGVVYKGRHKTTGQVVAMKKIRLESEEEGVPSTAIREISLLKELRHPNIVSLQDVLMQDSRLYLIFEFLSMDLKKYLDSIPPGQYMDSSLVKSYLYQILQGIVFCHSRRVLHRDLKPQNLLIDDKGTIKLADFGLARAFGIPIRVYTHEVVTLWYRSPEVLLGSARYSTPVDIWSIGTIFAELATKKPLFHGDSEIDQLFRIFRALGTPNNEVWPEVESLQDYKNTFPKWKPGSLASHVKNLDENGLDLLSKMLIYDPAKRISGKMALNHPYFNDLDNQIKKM
CDK1/Cyclin B1, sequence (P14635 whole entry partner): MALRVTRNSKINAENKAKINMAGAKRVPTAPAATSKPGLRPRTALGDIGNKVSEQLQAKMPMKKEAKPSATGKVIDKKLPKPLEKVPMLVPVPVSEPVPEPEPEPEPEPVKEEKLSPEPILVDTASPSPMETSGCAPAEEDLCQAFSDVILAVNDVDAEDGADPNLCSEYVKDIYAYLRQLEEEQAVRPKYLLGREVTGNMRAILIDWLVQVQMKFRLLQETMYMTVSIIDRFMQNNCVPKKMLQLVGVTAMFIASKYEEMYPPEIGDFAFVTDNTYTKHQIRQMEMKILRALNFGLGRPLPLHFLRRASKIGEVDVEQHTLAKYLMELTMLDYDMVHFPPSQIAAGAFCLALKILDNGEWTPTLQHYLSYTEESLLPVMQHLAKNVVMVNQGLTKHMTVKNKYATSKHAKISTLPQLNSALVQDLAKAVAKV
CDK4/Cyclin D1, sequence (P11802 whole entry): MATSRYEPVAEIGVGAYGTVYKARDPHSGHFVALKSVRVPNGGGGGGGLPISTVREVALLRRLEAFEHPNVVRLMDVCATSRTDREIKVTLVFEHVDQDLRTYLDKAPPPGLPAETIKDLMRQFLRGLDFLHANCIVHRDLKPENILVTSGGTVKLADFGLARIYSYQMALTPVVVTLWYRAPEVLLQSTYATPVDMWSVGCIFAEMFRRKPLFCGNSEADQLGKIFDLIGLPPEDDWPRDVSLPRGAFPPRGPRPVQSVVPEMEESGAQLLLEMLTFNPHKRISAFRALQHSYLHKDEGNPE
CDK4/Cyclin D1, sequence (P24385 whole entry partner): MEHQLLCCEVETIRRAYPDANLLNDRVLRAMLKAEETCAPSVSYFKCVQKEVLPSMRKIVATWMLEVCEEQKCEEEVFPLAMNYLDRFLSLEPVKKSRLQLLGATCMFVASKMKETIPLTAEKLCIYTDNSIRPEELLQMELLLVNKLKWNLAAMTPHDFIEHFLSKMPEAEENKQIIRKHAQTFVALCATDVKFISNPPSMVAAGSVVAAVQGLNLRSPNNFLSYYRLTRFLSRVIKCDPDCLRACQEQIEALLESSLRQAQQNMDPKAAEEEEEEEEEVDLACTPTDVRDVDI
CDK6/Cyclin D3, sequence (Q00534 whole entry): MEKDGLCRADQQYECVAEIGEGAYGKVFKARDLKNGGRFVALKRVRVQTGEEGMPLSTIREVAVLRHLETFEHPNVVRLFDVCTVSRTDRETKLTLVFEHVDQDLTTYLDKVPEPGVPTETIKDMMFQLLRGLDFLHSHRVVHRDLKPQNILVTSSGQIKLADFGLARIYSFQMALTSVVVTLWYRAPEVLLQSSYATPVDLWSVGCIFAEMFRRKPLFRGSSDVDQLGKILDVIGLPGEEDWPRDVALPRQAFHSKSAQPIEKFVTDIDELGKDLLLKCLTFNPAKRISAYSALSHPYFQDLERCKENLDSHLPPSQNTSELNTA
CDK6/Cyclin D3, sequence (P30281 whole entry partner): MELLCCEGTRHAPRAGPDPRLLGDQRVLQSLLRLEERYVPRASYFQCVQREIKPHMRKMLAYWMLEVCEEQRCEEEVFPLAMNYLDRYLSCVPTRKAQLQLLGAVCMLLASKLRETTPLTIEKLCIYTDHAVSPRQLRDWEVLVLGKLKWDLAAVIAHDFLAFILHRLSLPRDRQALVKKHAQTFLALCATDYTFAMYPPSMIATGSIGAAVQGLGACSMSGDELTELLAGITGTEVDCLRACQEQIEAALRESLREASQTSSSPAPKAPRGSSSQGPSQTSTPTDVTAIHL

For `CS(=O)(=O)N1CCC(Nc2ncc3ccnc(N4CCC5(C4)CC(F)(F)C5)c3n2)CC1` [Example 2, 8-(2,2-difluoro-6-azaspiro[3.4]octan-6-yl)-N-(1-(methylsulfonyl)piperidin-4-yl)pyrido[3,4-d]pyrimidin-2-amine], the IC50 with MCF-7 cells was 500 to 2000 nM; on CDK4/Cyclin D1, < 200 nM; on CDK1/Cyclin B1, < 200 nM; on CDK6/Cyclin D3, < 200 nM; in the test on OVCAR-3 cells it was 500 to 2000 nM; on CDK2/Cyclin E1, < 200 nM.

For `CCN1CC2(C1)CN(c1ccc(Nc3ncc4ccnc(N5CCC6(C5)CC(F)(F)C6)c4n3)nc1)C2` [Example 6, 8-(2,2-difluoro-6-azaspiro[3.4]octan-6-yl)-N-(5-(6-ethyl-2,6-diazaspiro[3.3]heptan-2-yl)pyridin-2-yl)pyrido[3,4-d]pyrimidin-2-amine], the IC50 in the test on MCF-7 cells is 500 to 2000 nM; on CDK4/Cyclin D1, < 200 nM; on CDK1/Cyclin B1 it was > 2000 nM; at CDK6/Cyclin D3 it was < 200 nM; with OVCAR-3 cells, > 2000 nM; on CDK2/Cyclin E1, 500 to 2000 nM.
